Laboratory results as given in US20090012125A1, “Piperidine Derivatives, Their Process for Preparation, Their Use as Therapeutic Agents and Pharmaceutical Compositions Containing Them” (priority 2006, published 2009).

Key:
[1] = Intrinsic clearance with human liver microsomes; format: in vitro ADME; details: human liver microsomes 1 mg protein/ml, NADPH, pH 7.4
Protocol: Determination of Intrinsic Clearance with Human Liver Microsomes
Frozen human liver microsomes (BD Gentest, Oxford) were defrosted and were then diluted with 0.1 M pH 7.4 phosphate buffer at 4° C. to 1 mg protein/ml. 0.45 mL aliquots of the microsome suspension were dispensed into flat-bottomed vials (1 per compound) and were allowed to come to room temperature (5 min). During the warming time, 5 μL of solution of each test compound (typically 100 μM in DMSO) was dispensed into separate vials resulting in a final DMSO concentration of 1%. 50 μL of a 10 mM solution of NADPH in phosphate buffer (0.1 M pH 7.4, 37° C.) was added to each vial to initiate metabolism.
50 μL Aliquots of the mixtures were removed at measured intervals and were immediately quenched by addition to 100 μL of methanol cooled in ice. The quenched samples were kept cold (at −20° C. or less) for at least 1 h and were then centrifuged to remove protein
The supernatant solution was analysed using quantitative LCMS for the presence of test compound. From the concentrations of test compound at different time points a T1/2 may be calculated which may be converted to an intrinsic clearance using the equation: CLint=ln 2/T1/2.

[2] = molecular target: T1, human recombinant CCR3 receptors (Homo sapiens, UniProt P51677); experiment: Compound affinity at human recombinant CCR3 receptors by radioligand competition, CHO-K1 cell membranes; format: binding; details: mean of minimum 2 experiments; Cheng-Prussof correction of pIC50; 2 nM [3H] radioligand, 2 h at 37° C.; read-out: CCR3 pKi (converted)
T1 construct: expressed in transfected cells
T1 sequence (P51677 1-355): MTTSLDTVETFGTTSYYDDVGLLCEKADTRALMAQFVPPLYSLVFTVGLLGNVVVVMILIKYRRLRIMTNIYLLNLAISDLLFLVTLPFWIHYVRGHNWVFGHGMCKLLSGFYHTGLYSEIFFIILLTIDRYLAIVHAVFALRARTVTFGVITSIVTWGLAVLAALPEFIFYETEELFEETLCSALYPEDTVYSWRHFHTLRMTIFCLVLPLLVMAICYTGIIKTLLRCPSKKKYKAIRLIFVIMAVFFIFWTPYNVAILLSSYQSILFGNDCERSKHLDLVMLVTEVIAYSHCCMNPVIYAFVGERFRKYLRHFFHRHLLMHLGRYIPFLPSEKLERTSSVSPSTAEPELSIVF
Protocol: Determination of Compound Affinity at Human Recombinant CCR3 Receptors Assessed by Competition Of [^3H]-4-(2,4-dichloro-3-methylphenoxy)-1′-[4-(methylsulfonyl)benzoyl]-1,4′-bipiperidine for CHO-K1 Cell Membranes In Vitro
Membranes, prepared from CHO-K1 cells stably expressing recombinant human CCR3, suspended in assay buffer (50 mM Tris-Base, pH 7.4; containing sodium chloride (100 mM) and magnesium chloride (2 mM)) were incubated in the presence of 2 nM [^3H]-4-(2,4-dichloro-3-methylphenoxy)-1′-[4-(methylsulfonyl)benzoyl]-1,4′-bipiperidine, along with vehicle (1% (v/v) DMSO), 4-(4-chloro-3-methylphenoxy)-1′-[2-(methylsulfonyl)benzoyl]-1,4′-bipiperidine (to define non-specific binding) or test compound for 2 h at 37° C. in round bottomed 96-well plates. The plates were then filtered onto GF/B filter plates, pre-soaked for 1 hour in plate-coating solution (0.3% (w/v) polyethylenimine, 0.2% (w/v) BSA in de-ionised water), using a 96-well plate Tomtec cell harvester. Four washes (250 μL) with wash buffer (50 mM Tris-Base, pH 7.4 containing sodium chloride (500 mM) and magnesium chloride (2 mM)) were performed at 4° C. to remove unbound radioactivity. Plates were dried and MicroScint-O (50 μL) was added to each well. The plates were sealed (TopSeal A) and filter-bound radioactivity was measured with a scintillation counter (TopCount, Packard BioScience) using a 1 minute counting protocol.
Specific binding was determined from values of the control wells minus the values for the NSB wells for each assay plate. pIC50 values were calculated using a four parameter logistic fit (where pIC50 is defined as the negative logarithm of the concentration of compound required for 50% reduction in specific [^3H]-4-(2,4-dichloro-3-methylphenoxy)-1′-[4-(methylsulfonyl)benzoyl]-1,4′-bipiperidine binding). Data were presented as mean pKi values (calculated by applying a Cheng-Prussof correction to pIC50 values) from a minimum of 2 separate experiments.

Row | Structure (SMILES) | CLint scaled at 1 µM [1] [mL/min/kg] | Ki [2] [nM]
1 | O=C(CCc1ccc(C(=O)O)cc1)NC1CCN(Cc2ccc(Cl)c(Cl)c2)CC1 [Example 2, 4-{2-[1-(3,4-Dichloro-benzyl)-piperidin-4-ylcarbamoyl]-ethyl}-benzoic acid] | < 3 | 63.1
2 | O=C(CCc1cccc(C(=O)O)c1)NC1CCN(Cc2ccc(Cl)c(Cl)c2)CC1 [Example 4, 3-{2-[1-(3,4-Dichloro-benzyl)-piperidin-4-ylcarbamoyl]-ethyl}-benzoic acid] | < 3 | 79.4
3 | O=C(CCc1ccc2cc(C(=O)O)ccc2c1)NC1CCN(Cc2ccc(Cl)c(Cl)c2)CC1 [Example 6, 6-{2-[1-(3,4-Dichloro-benzyl)-piperidin-4-ylcarbamoyl]-ethyl}-naphthalene-2-carboxylic acid] | < 3 | 15.8
